{"source": "patent US6034236A", "about": "“Method for producing of phthalocyanine compound” (Nippon Shokubai Co., Ltd., priority 1997, dated 2000)", "key": {"[1]": {"assay": "Visible absorption spectrum (largest absorption wavelength, ε)", "format": "physicochemical"}, "[2]": {"assay": "Solubility in 2-ethoxyethanol"}}}
{"compound": "Fc1c(F)c(F)c2c(c1F)-c1nc-2nc2[n-]c(nc3nc(nc4[n-]c(n1)c1c(F)c(F)c(F)c(F)c41)-c1c(F)c(F)c(F)c(F)c1-3)c1c(F)c(F)c(F)c(F)c21.[O]=[V+2]", "note": "[Example 7, hexadecafluorovanadyl phthalocyanine]", "values": [{"measurement": "Largest absorption wavelength in 1-chloronaphthalene", "setting": "[1]", "result": 710.2, "unit": "nm"}, {"measurement": "ε at largest absorption wavelength in 1-chloronaphthalene", "setting": "[1]", "result": "1.89 × 10^5"}, {"measurement": "Largest absorption wavelength in 1-chloronaphthalene", "setting": "[1]; listed as Example 8", "result": 710.1, "unit": "nm"}, {"measurement": "ε at largest absorption wavelength in 1-chloronaphthalene", "setting": "[1]; listed as Example 8", "result": "1.77 × 10^5"}]}
{"compound": "Clc1c(Cl)c(Cl)c2c(c1Cl)-c1nc-2nc2[n-]c(nc3nc(nc4[n-]c(n1)c1c(Cl)c(Cl)c(Cl)c(Cl)c41)-c1c(Cl)c(Cl)c(Cl)c(Cl)c1-3)c1c(Cl)c(Cl)c(Cl)c(Cl)c21.[O]=[V+2]", "note": "[Example 12, hexadecachlorovanadylphthalocyanine]", "values": [{"measurement": "Largest absorption wavelength in 1-chloronaphthalene", "setting": "[1]", "result": 712.4, "unit": "nm"}, {"measurement": "ε at largest absorption wavelength in 1-chloronaphthalene", "setting": "[1]", "result": "1.65 × 10^5"}]}
{"compound": "[O]=[Ti+2].c1ccc2c(c1)-c1nc-2nc2[n-]c(nc3nc(nc4[n-]c(n1)c1ccccc41)-c1ccccc1-3)c1ccccc21", "note": "[Example 13, titanylphthalocyanine]", "values": [{"measurement": "Largest absorption wavelength in 1-chloronaphthalene", "setting": "[1]", "result": 710.5, "unit": "nm"}, {"measurement": "ε at largest absorption wavelength in 1-chloronaphthalene", "setting": "[1]", "result": "1.33 × 10^5"}]}
{"compound": "octakisphenylthiooctafluorovanadyl phthalocyanine [Example 10]", "values": [{"measurement": "Largest absorption wavelength in toluene", "setting": "[1]; in toluene", "result": 770, "unit": "nm"}]}
{"compound": "octaphenoxyoctafluorovanadyl phthalo-cyanine [Example 11]", "values": [{"measurement": "Largest absorption wavelength in acetone", "setting": "[1]; in acetone", "result": 720, "unit": "nm"}]}
{"compound": "tetrakis(2-(1,3-dibromo-2-propoxy)-carbonyl-6-phenylphenoxy)dodecafluorovanadyl phthalocyanine [Example 2]", "values": [{"measurement": "Visible absorption spectrum, Thin film", "setting": "[1]", "result": 731.6, "unit": "nm"}, {"measurement": "Largest absorption wavelength in 2-ethoxyethanol", "setting": "[1]", "result": 714.5, "unit": "nm"}, {"measurement": "ε at largest absorption wavelength in 2-ethoxyethanol", "setting": "[1]", "result": "1.75 × 10^5"}]}
{"compound": "tetrakis(2-(2-ethoxyethoxy) dodecafluorovanadyl phthalocyanine [Example 14]", "values": [{"measurement": "Largest absorption wavelength in 2-ethoxyethanol", "setting": "[1]", "result": 709.0, "unit": "nm"}, {"measurement": "ε at largest absorption wavelength in 2-ethoxyethanol", "setting": "[1]", "result": "1.26 × 10^5"}]}
{"compound": "tetrakis(2-(2-ethoxyethoxy)carbonyl-6-methoxyphenoxy)dodecafluorovanadyl phthalocyanine [Example 6]", "values": [{"measurement": "Solubility in 2-ethoxyethanol", "setting": "[2]", "result": 13, "unit": "wt. %"}, {"measurement": "Visible absorption spectrum, Thin film", "setting": "[1]", "result": 733.0, "unit": "nm"}, {"measurement": "Largest absorption wavelength in 2-ethoxyethanol", "setting": "[1]", "result": 715.2, "unit": "nm"}, {"measurement": "ε at largest absorption wavelength in 2-ethoxyethanol", "setting": "[1]", "result": "1.37 × 10^5"}]}
{"compound": "tetrakis(2-(2-methoxyethoxy)carbonyl-6-methylphenoxy)dodecachlorovanadyl phthalocyanine [Example 9]", "values": [{"measurement": "Visible absorption spectrum, Thin film", "setting": "[1]", "result": 732.0, "unit": "nm"}, {"measurement": "Largest absorption wavelength in 2-ethoxyethanol", "setting": "[1]", "result": 712.5, "unit": "nm"}, {"measurement": "ε at largest absorption wavelength in 2-ethoxyethanol", "setting": "[1]", "result": "1.10 × 10^5"}]}
{"compound": "tetrakis(2-(2-methoxyethoxy)carbonyl-6-methylphenoxy)dodecafluorovanadyl phthalocyanine [Example 5]", "values": [{"measurement": "Visible absorption spectrum, Thin film", "setting": "[1]", "result": 732.8, "unit": "nm"}, {"measurement": "Largest absorption wavelength in 2-ethoxyethanol", "setting": "[1]", "result": 710.4, "unit": "nm"}, {"measurement": "ε at largest absorption wavelength in 2-ethoxyethanol", "setting": "[1]", "result": "1.32 × 10^5"}]}
{"compound": "tetrakis(2-(2-methoxyethoxy)carbonyl-6-phenylphenoxy)dodecafluorovanadyl phthalocyanine [Example 3]", "values": [{"measurement": "Visible absorption spectrum, Thin film", "setting": "[1]", "result": 730.6, "unit": "nm"}, {"measurement": "Largest absorption wavelength in 2-ethoxyethanol", "setting": "[1]", "result": 713.7, "unit": "nm"}, {"measurement": "ε at largest absorption wavelength in 2-ethoxyethanol", "setting": "[1]", "result": "1.42 × 10^5"}]}
{"compound": "tetrakis(2-(2-propoxy)carbonyl-6-phenylphenoxy)dodecafluorovanadyl phthalocyanine [Example 1]", "values": [{"measurement": "Visible absorption spectrum, Thin film", "setting": "[1]", "result": 732.2, "unit": "nm"}, {"measurement": "Largest absorption wavelength in 2-ethoxyethanol", "setting": "[1]", "result": 715.0, "unit": "nm"}, {"measurement": "ε at largest absorption wavelength in 2-ethoxyethanol", "setting": "[1]", "result": "1.52 × 10^5"}]}
{"compound": "tetrakis(2-(2-tetrahydrofurfuryloxy)-carbonyl-6-phenylphenoxy)dodecafluorovanadyl phthalocyanine [Example 4]", "values": [{"measurement": "Visible absorption spectrum, Thin film", "setting": "[1]", "result": 732.3, "unit": "nm"}, {"measurement": "Largest absorption wavelength in 2-ethoxyethanol", "setting": "[1]", "result": 714.7, "unit": "nm"}, {"measurement": "ε at largest absorption wavelength in 2-ethoxyethanol", "setting": "[1]", "result": "1.22 × 10^5"}]}
